Holding throughout (format): biochemical
One assay deals with T1, KDM2B (FBXL10) (Homo sapiens, UniProt Q8NHM5).
T1 construct: 1-650; purchased BPS Bioscience, US; host or cells: Bac (baculovirus/insect cells)
T1 sequence (Q8NHM5 1-650): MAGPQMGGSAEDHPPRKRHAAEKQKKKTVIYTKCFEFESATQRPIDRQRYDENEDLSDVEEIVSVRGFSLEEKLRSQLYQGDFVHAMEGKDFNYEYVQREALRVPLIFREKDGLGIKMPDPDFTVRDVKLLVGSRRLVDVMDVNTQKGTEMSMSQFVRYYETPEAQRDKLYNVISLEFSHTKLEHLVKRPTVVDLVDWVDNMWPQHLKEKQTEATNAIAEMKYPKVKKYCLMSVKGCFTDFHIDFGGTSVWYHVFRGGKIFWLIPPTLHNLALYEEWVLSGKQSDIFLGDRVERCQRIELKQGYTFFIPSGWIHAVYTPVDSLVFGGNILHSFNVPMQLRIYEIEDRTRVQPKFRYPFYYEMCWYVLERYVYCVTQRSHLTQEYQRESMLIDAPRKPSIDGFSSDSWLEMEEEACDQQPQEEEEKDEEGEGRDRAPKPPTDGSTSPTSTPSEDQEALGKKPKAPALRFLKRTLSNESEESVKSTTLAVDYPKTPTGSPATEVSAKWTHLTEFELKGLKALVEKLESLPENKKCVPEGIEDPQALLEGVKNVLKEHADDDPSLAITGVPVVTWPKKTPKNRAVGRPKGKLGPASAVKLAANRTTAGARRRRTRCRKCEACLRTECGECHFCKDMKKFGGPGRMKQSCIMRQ
The assay can be described thus: Histone lysine demethylase AlphaLISA assay, KDM2B. Conditions: in vitro enzyme, read-out: KDM2B IC50 (HDME Inhibition). (In general: Alpha assays give light when donor and acceptor beads are brought close together.)

For the next assay, the target named is T2, KDM5B (PLU-1) (Homo sapiens, UniProt Q9UGL1).
T2 construct: 1-809; host or cells: E. coli
T2 sequence (Q9UGL1 1-809): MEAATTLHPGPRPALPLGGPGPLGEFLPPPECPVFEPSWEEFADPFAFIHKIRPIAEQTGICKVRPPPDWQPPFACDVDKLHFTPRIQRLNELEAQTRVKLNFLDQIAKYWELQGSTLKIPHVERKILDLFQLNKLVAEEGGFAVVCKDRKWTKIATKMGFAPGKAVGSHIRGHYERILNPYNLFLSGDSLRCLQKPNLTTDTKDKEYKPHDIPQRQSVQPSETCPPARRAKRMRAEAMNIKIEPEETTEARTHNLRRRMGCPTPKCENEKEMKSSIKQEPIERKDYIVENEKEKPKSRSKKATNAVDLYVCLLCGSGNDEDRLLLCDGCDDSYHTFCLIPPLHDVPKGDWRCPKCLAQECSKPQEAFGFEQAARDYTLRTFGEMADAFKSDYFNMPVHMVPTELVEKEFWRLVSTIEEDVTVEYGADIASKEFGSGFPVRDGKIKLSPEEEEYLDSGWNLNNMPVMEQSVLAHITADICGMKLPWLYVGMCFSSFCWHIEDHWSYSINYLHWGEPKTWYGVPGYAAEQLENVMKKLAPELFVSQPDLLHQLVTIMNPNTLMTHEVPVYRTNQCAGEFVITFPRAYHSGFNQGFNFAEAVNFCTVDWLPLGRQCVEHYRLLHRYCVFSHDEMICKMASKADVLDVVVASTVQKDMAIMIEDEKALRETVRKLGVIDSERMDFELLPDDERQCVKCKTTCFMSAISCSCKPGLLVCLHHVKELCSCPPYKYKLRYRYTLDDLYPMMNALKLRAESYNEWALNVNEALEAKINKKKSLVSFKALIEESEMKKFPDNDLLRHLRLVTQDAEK
Briefly: Histone lysine demethylase AlphaLISA assay, KDM5B. Conditions: in vitro enzyme, read-out: KDM5B IC50 (HDME Inhibition).

The target in a further assay is T3, KDM4C (JMJD2C) (Homo sapiens, UniProt Q9H3R0).
T3 construct: 1-349; host or cells: E. coli
T3 sequence (Q9H3R0 1-349): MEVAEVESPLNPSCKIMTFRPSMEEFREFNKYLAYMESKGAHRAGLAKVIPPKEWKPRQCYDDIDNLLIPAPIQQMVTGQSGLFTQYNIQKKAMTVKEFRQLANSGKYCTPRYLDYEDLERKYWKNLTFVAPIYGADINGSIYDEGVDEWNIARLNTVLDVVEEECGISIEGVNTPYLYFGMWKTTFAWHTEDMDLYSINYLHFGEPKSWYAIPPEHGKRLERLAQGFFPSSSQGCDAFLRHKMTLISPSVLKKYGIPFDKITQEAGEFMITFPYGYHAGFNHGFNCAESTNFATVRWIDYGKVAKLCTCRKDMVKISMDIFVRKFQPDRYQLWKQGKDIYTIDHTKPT
The assay can be described thus: Histone lysine demethylase AlphaLISA assay, KDM4C. Conditions: in vitro enzyme, read-out: KDM4C IC50 (HDME Inhibition). As to the method: Histone lysine demethylase AlphaLISA assays are performed to determine IC50 values. […] Assays are performed analogously to the protocol described by PerkinElmer (Roy et al. PerkinElmer Technical Note: AlphaLISA #12, April 2011).
Assays are performed analogously to the protocol described by PerkinElmer (Roy et al. PerkinElmer Technical Note: AlphaLISA #12, April 2011).
Enzymes (final assay concentration 0.1-2.5 nM) are dissolved in enzyme buffer and incubated for 10 min before 5 μL is added to 5 μL 3% DMSO solutions of compounds in enzyme buffer, incubated for another 10 minutes, before 5 μL substrate solution is added and the reaction mixture is incubated at room temperature. 10 μL acceptor beads, suspended Epigenetic Buffer (Perkin Elmer AL008) from stock, are added and the suspension is incubated in the dark at room temperature, before 10 μL suspension of streptavidin donor beads (Perkin Elmer 6760002) in Epigenetic Buffer is added. After incubation at room temperature in the dark the plates are read.
Substrate solution: Substrate (final assay concentration 50-200 nM), 50 mM Hepes (pH 7.4-8.0), 0.003% Tween-20, 0.1% BS, 25 μM L-Asc, 10 μM α-KG. Enzyme Buffer: 50 mM Hepes (pH 7.4-8.0), 0.003% Tween-20, 0.1% BSA; 5 μM (NH4)2Fe(SO4)2

In another assay the target is PHF8 (KDM7) (Homo sapiens, UniProt Q9UPP1). Briefly: Histone lysine demethylase AlphaLISA assay, PHF8. The settings on record: in vitro enzyme, read-out: PHF8 IC50 (HDME Inhibition).
PHF8 (KDM7), sequence (Q9UPP1 whole entry): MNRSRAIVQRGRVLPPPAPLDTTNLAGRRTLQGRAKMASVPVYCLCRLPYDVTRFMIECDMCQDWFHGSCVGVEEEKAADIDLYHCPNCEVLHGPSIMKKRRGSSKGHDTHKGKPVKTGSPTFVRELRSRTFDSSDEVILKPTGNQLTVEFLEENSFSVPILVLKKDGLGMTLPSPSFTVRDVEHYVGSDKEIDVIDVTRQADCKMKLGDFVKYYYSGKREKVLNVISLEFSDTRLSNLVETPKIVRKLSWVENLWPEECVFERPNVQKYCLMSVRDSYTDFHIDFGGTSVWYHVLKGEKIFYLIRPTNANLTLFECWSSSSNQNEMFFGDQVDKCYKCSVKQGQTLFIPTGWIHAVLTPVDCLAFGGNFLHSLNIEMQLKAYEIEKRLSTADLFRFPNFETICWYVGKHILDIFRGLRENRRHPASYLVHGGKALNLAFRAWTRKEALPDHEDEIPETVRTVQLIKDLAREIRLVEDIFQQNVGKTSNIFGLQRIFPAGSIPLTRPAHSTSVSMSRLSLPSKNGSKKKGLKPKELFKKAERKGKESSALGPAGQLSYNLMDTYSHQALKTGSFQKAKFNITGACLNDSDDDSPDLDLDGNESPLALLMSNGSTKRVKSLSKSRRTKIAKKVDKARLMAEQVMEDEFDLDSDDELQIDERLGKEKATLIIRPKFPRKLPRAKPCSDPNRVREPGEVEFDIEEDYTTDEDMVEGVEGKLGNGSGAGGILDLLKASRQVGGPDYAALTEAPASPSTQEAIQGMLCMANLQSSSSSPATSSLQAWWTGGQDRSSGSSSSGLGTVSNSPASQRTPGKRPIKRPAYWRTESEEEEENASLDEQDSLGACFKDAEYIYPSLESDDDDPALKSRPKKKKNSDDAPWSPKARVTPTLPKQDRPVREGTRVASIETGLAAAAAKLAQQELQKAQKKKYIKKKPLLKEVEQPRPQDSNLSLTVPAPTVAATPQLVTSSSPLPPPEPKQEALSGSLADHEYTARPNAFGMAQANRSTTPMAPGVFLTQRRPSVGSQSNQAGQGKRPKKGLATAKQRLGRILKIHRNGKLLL
A further assay concerns the target T4, KDM6A (UTX) (Homo sapiens, UniProt O15550).
T4 construct: 919-1401; host or cells: E. coli
Briefly: Histone lysine demethylase AlphaLISA assay, KDM6A. The settings on record: in vitro enzyme, read-out: KDM6A IC50 (HDME Inhibition).

T4 sequence (O15550 919-1401): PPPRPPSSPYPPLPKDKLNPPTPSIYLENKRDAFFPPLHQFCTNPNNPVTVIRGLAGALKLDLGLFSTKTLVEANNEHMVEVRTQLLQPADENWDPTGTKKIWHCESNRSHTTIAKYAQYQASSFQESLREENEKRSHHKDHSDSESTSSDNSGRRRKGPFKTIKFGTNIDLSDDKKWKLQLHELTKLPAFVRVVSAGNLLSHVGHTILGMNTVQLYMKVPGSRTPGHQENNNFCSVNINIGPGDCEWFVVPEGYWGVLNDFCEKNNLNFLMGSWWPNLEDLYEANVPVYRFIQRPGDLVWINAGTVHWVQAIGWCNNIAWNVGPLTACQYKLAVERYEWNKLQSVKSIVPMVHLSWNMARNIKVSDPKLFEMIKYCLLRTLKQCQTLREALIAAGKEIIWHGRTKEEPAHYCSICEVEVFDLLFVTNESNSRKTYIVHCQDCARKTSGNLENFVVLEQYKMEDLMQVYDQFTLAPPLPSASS

Take `CC(NCC(=O)N1CCCCC1)c1cc(C(=O)O)ccn1` (stereo not shown) [Compound 48, 2-(1-{[2-oxo-2-(piperidin-1-yl)ethyl]amino}ethyl) pyridine-4-carboxylic acid]: the IC50 on KDM2B (FBXL10), at KDM5B (PLU-1) and at KDM4C (JMJD2C) was 250 to 2500 nM in each case.

Regarding `C=CCc1cnc2c(c1)CCC2NCc1cc(C(=O)O)ccn1` (stereo not shown) [Compound 95, 2-({[3-(prop-2-en-1-yl)-5H,6H,7H-cyclopenta[b]pyridin-7-yl]amino}methyl)pyri-dine-4-carboxylic acid], the IC50 at PHF8 (KDM7) is less than 250 nM; at KDM2B (FBXL10), less than 250 nM; at KDM4C (JMJD2C), 250 to 2500 nM.

Turning to `O=C(O)c1ccnc(CNCc2cn(Cc3ccc(F)cc3)c3ccc(F)cc23)c1` [Compound 86, 2-{[({5-fluoro-1-[(4-fluorophenyl)methyl]-1H-indol-3-yl}methyl)amino]methyl}pyridine-4-carboxylic acid], the IC50 at KDM2B (FBXL10) is 250 to 2500 nM; on KDM6A (UTX), more than 2500 nM; at KDM4C (JMJD2C) it was more than 2500 nM.

In the case of `CCN(CC)C(=O)CCN(CCC(=O)N(CC)CC)Cc1cc(C(=O)O)ccn1` [Compound 32, 2-({bis[2-(diethylcarbamoyl)ethyl]amino}methyl)pyri-dine-4-carboxylic acid], the results for the IC50 on PHF8 (KDM7), at KDM2B (FBXL10) and at KDM4C (JMJD2C) were more than 2500 nM, 250 to 2500 nM and more than 2500 nM, respectively.

`CCN(CC)C(=O)CC(C)NCc1cc(C(=O)O)ccn1` (stereo not shown) [Compound 43, 2-({[1-(diethylcarbamoyl)propan-2-yl]amino}methyl)pyri-dine-4-carboxylic acid]: the IC50 on PHF8 (KDM7) is 250 to 2500 nM; at KDM2B (FBXL10), 250 to 2500 nM; on KDM4C (JMJD2C), more than 2500 nM.

Consider `CCN(CC)C(=O)CCN(CC(N)=O)C(C)c1cc(C(=O)O)ccn1` (stereo not shown) [Compound 31, 2-{1-[(carbamoylmethyl)[2-(diethylcarbamoyl)ethyl]amino]ethyl}pyridine-4-carboxylic acid], for which the IC50 on PHF8 (KDM7), at KDM2B (FBXL10) and on KDM4C (JMJD2C) was more than 2500 nM each time.

With `C[C@H](N[C@H](C)c1cc(C(=O)O)ccn1)C(=O)NCc1ccc(CO)cc1` [Compound 16, 2-[(1R)-1-{[(1S)-1-({[4-(hydroxymethyl)phenyl]methyl}carbamoyl)ethyl]amino}ethyl] pyridine-4-carboxylic acid], the results for the IC50 at KDM2B (FBXL10), on KDM6A (UTX) and on KDM4C (JMJD2C) were 250 to 2500 nM, more than 2500 nM and more than 2500 nM, respectively.

As for `CCN1CCC[C@@H](CNCc2cc(C(=O)O)ccn2)C1=O` [Compound 104, 2-[({[(3S)-1-ethyl-2-oxopiperidin-3-yl]methyl}amino)methyl]pyridine-4-carboxylic acid], the IC50 at PHF8 (KDM7) was 250 to 2500 nM; at KDM6A (UTX), more than 2500 nM; at KDM5B (PLU-1) it was less than 250 nM; on KDM4C (JMJD2C) it was 250 to 2500 nM.

In the case of `CCNC(=O)C[C@H]1CCN(Cc2cc(C(=O)O)ccn2)C1` [Compound 73, 2-{[(3R)-3-[(ethylcarbamoyl)methyl]pyrrolidin-1-yl]methyl}pyridine-4-carboxylic acid], the IC50 is 250 to 2500 nM on PHF8 (KDM7), 250 to 2500 nM at KDM2B (FBXL10) and more than 2500 nM at KDM4C (JMJD2C).

For `CC(C)c1ccnc2c1CCC2NCc1cc(C(=O)O)ccn1` (stereo not shown) [Compound 99, 2-({[4-(propan-2-yl)-5H,6H,7H-cyclopenta[b]pyridin-7-yl]amino}methyl)pyri-dine-4-carboxylic acid], the values for the IC50 at KDM2B (FBXL10), at KDM6A (UTX) and at KDM4C (JMJD2C) were less than 250 nM, more than 2500 nM and 250 to 2500 nM, respectively.

As for `COc1ccnc2c1CCC2NCc1cc(C(=O)O)ccn1` (stereo not shown) [Compound 101, 2-[({4-methoxy-5H,6H,7H-cyclopenta[b]pyridin-7-yl}amino)methyl]pyri-dine-4-carboxylic acid], the half-inhibitory concentration (IC50) at KDM2B (FBXL10) is less than 250 nM; at KDM5B (PLU-1) it was less than 250 nM; at KDM4C (JMJD2C), 250 to 2500 nM.

With `CC(NCc1nccs1)c1cc(C(=O)O)ccn1` (stereo not shown) [Compound 41, 2-{1-[(1,3-thiazol-2-ylmethyl)amino]ethyl} pyridine-4-carboxylic acid], the IC50 on KDM2B (FBXL10), on KDM5B (PLU-1) and on KDM4C (JMJD2C) was 250 to 2500 nM each time.

Regarding `C=CCN(CC=C)C(=O)[C@@H](CCCCN(CCC)C(=O)OC(C)(C)C)NCc1cc(C(=O)O)ccn1` [Compound 4, 2-({[(1R)-1-[bis(prop-2-en-1-yl)carbamoyl]-5-{[(tert-butoxy)carbonyl](propyl)amino}pentyl]amino}methyl)pyridine-4-carboxylic acid], the IC50 on KDM2B (FBXL10) is 250 to 2500 nM; at KDM5B (PLU-1) it was more than 2500 nM; on KDM4C (JMJD2C), more than 2500 nM.

Regarding `CCN1CC[C@H](CNCc2cc(C(=O)O)ccn2)C1=O` [Compound 106, 2-[({[(3R)-1-ethyl-2-oxopyrrolidin-3-yl]methyl}amino)methyl]pyridine-4-carboxylic acid], the IC50 at KDM2B (FBXL10) was less than 250 nM; on KDM6A (UTX) it was more than 2500 nM; at KDM4C (JMJD2C), less than 250 nM.

On to `C=CCN(CC=C)C(=O)[C@H](CC(=O)NCCCN(C)C)NCc1cc(C(=O)O)ccn1` [Compound 10, 2-({[(1S)-1-[bis(prop-2-en-1-yl)carbamoyl]-2-{[3-(dimethylamino)propyl]carbamoyl}ethyl]amino}methyl)pyridine-4-carboxylic acid], for which the IC50 at KDM2B (FBXL10) is more than 2500 nM; on KDM5B (PLU-1), less than 250 nM; on KDM4C (JMJD2C) it was more than 2500 nM.

Turning to `O=C(O)c1ccnc(CNC2CCc3cccnc32)c1` (stereo not shown) [Compound 98, 2-[({5H,6H,7H-cyclopenta[b]pyridin-7-yl}amino)methyl]pyri-dine-4-carboxylic acid], the IC50 on KDM2B (FBXL10) was 250 to 2500 nM; at KDM5B (PLU-1), less than 250 nM; at KDM4C (JMJD2C) it was 250 to 2500 nM.

In the case of `COCC(=O)Nc1ccccc1CNC(=O)[C@H](CC(C)C)NCc1cc(C(=O)O)ccn1` [Compound 12, 2-({[(1S)-1-({[2-(2-methoxyacetamido)phenyl]methyl}carbamoyl)-3-methylbutyl]amino}methyl)pyridine-4-carboxylic acid], the IC50 was 250 to 2500 nM at PHF8 (KDM7), 250 to 2500 nM at KDM2B (FBXL10) and more than 2500 nM on KDM4C (JMJD2C).

As usually defined, the IC50 is the midpoint of a concentration-inhibition curve.

The values above are taken from US20170369444A1, “INHIBITORS OF HISTONE DEMETHYLASES” (Gilead Sciences, Inc., priority 2014, published 2017).
